Two compounds from article PMC4178217, “Quinoline 3-sulfonamides inhibit lactate dehydrogenase A and reverse aerobic glycolysis in cancer cells” (Cancer & Metabolism, 2013) can be followed below.

Assay [1] concerns Snu398 cells. Put plainly: Fructose-1,6-bisphosphate (FBP) analysis. It is filed as cell-based, human. The conditions noted are these: Snu398, 10 μM, 24 h R10 or 6 h low glucose. As for the experimental part: Treatment was carried out for 24 h in R10 or for 6 h in low glucose medium. At the end of this treatment, cells were washed, lifted by trypsinization, counted, and cell pellets were submitted for analysis of FBP to Apredica, Inc.

A further assay deals with Adenosine Receptor a2A (Homo sapiens, UniProt P29274). The assay can be described thus: Adenosine Receptor a2A ANT. The settings on record: antagonist; read-out: pIC50 Adenosine Receptor a2A ANT (converted). The text has this:
(§1) ANT = antagonist (pIC50), AG = agonist (pEC50). pIC50 and pEC50 are the negative logarithms10 of IC50 and EC50, respectively. Click here for file

The next assay addresses Adrenergic Receptor b2 (Homo sapiens, UniProt P07550). Put plainly: Adrenergic Receptor b2 ANT. The settings on record: antagonist; read-out: pIC50 Adrenergic Receptor b2 ANT (converted).
Description: as §1

For another assay, the target named is Aurora B Kinase (Homo sapiens, UniProt Q96GD4). Put plainly: Aurora B Kinase ANT. The settings on record: antagonist; read-out: pIC50 Aurora B Kinase ANT (converted). It is filed as biochemical.
Description: as §1

Assay [2] addresses Cannabinoid receptor type 2 (Homo sapiens, UniProt P34972). Put plainly: Cannabinoid receptor type 2 AG. The settings on record: agonist; read-out: pEC50 Cannabinoid receptor type 2 AG (converted).
Description: as §1

For a further assay, the target named is Dopamin Receptor D1 (Homo sapiens, UniProt P21728). Put plainly: Dopamin Receptor D1 ANT. The settings on record: antagonist; read-out: pIC50 Dopamin Receptor D1 ANT (converted).
Description: as §1

For another assay, the target named is Dopamin Receptor D2 (Homo sapiens, UniProt P14416). The assay can be described thus: Dopamin Receptor D2 AG. The conditions noted are these: agonist; read-out: pEC50 Dopamin Receptor D2 AG (converted).
Description: as §1

Assay [3] deals with T1, Muscarinic Receptor M2 (Homo sapiens, UniProt P08172).
T1 sequence (P08172 1-466): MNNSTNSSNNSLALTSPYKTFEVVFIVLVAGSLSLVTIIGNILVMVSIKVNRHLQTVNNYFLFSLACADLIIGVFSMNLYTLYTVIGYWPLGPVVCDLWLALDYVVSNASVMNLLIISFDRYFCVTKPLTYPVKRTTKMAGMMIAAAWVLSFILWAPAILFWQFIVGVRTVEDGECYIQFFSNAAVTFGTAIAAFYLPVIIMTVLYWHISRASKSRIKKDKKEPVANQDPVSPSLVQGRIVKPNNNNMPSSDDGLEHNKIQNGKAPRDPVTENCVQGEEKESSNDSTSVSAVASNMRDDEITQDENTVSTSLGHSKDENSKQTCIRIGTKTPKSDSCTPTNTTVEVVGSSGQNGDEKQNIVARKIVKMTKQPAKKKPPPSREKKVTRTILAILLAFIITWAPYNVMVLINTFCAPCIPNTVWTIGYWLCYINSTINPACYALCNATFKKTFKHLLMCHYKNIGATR
The assay can be described thus: Muscarinic Receptor M2 AG. The settings on record: agonist; read-out: pEC50 Muscarinic Receptor M2 AG (converted).
Description: as §1

In assay [4] the target is T1, Muscarinic Receptor M2. The assay can be described thus: Muscarinic Receptor M2 ANT. The settings on record: antagonist; read-out: pIC50 Muscarinic Receptor M2 ANT (converted).
Description: as §1

Assay [5] has as its target Nicotinic Ach Receptor A1 (Homo sapiens, UniProt P02708+P07510+Q07001). The assay can be described thus: Nicotinic Ach Receptor A1 ANT.
Description: as §1

The next assay deals with Opioid Receptor k (Homo sapiens, UniProt P41145). Put plainly: Opioid Receptor k AG. The conditions noted are these: agonist; read-out: pEC50 Opioid Receptor k AG (converted).
Description: as §1

Assay [6] concerns the target T2, Opioid Receptor m (Homo sapiens, UniProt P35372). The assay can be described thus: Opioid Receptor m AG. The conditions noted are these: agonist; read-out: pEC50 Opioid Receptor m AG (converted).
Description: as §1

Assay [7] addresses T2, Opioid Receptor m. The assay can be described thus: Opioid Receptor m ANT. The settings on record: antagonist; read-out: pIC50 Opioid Receptor m ANT (converted).
Description: as §1

The target of the next assay is Phosphodiesterase 4B (Homo sapiens, UniProt Q07343). The assay can be described thus: Phosphodiesterase 4B ANT. It is filed as biochemical. The settings on record: antagonist; read-out: pIC50 Phosphodiesterase 4B ANT (converted).
Description: as §1

The target of assay [8] is Phosphoinositide 3-kinase g (Homo sapiens, UniProt P48736). The assay can be described thus: Phosphoinositide 3-kinase g ANT. It is filed as biochemical. The settings on record: antagonist; read-out: pIC50 Phosphoinositide 3-kinase g ANT (converted).
Description: as §1

Assay [9] concerns the target T3, Serotonin Receptor 5HT1B (Homo sapiens, UniProt P28222). Put plainly: Serotonin Receptor 5HT1B AG. The settings on record: agonist; read-out: pEC50 Serotonin Receptor 5HT1B AG (converted).
Description: as §1

Assay [10] concerns the target T3, Serotonin Receptor 5HT1B. The assay can be described thus: Serotonin Receptor 5HT1B ANT. The conditions noted are these: antagonist; read-out: pIC50 Serotonin Receptor 5HT1B ANT (converted).
Description: as §1

In a further assay the target is T4, Serotonin Receptor 5HT2C (Homo sapiens, UniProt P28335).
T4 sequence (P28335 33-458): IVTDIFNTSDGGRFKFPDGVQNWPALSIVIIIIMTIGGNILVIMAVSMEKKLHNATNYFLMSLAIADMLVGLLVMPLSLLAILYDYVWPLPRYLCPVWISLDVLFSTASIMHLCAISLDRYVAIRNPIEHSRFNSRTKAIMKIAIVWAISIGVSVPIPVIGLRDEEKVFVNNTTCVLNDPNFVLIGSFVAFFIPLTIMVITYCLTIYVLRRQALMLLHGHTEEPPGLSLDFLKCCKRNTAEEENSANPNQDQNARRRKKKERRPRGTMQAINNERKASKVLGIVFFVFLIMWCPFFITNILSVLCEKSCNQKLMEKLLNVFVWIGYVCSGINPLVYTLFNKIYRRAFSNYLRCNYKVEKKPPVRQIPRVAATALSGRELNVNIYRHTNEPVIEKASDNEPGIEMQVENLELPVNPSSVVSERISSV
Put plainly: Serotonin Receptor 5HT2C ANT. The settings on record: antagonist; read-out: pIC50 Serotonin Receptor 5HT2C ANT (converted).
Description: as §1

The target of another assay is Sodium Channel NaV 1.5 (Homo sapiens, UniProt Q14524). Put plainly: Sodium Channel NaV 1.5 ANT. The conditions noted are these: antagonist; read-out: pIC50 Sodium Channel NaV 1.5 ANT (converted).
Description: as §1

The next assay addresses Vasopressin Receptor V1a (Homo sapiens, UniProt P37288). The assay can be described thus: Vasopressin Receptor V1a ANT. The settings on record: antagonist; read-out: pIC50 Vasopressin Receptor V1a ANT (converted).
Description: as §1

Assay [11] relates to Snu398 cells. Put plainly: Lactate production assay, Snu398 (RapidFire-MS). The settings on record: Homo sapiens, SNU-398, read-out: lactate production EC50.

“Also recorded” adds a separate entry of the source. Like-named read-outs stand apart in the source and are kept apart here.

T2 sequence (P35372 whole entry): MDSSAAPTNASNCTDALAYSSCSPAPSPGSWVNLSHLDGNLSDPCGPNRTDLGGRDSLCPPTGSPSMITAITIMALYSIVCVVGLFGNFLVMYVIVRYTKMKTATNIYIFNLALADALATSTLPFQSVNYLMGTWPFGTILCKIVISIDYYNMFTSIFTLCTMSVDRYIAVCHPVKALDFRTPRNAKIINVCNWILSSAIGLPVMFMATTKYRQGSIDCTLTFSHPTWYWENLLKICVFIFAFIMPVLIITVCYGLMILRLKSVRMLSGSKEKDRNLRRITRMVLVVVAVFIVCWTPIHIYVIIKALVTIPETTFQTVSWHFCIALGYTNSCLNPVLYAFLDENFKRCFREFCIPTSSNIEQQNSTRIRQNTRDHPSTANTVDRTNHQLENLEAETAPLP
T3 sequence (P28222 whole entry): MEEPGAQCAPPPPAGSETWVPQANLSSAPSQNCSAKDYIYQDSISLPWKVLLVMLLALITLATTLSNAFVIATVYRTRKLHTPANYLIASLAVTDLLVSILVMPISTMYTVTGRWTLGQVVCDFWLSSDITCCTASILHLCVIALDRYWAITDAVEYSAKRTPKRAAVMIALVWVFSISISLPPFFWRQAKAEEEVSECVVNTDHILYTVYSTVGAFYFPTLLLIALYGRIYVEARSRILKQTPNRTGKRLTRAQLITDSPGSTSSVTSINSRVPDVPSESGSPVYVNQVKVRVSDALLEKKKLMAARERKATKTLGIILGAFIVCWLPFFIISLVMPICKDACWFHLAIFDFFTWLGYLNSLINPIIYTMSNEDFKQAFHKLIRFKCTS
Chain of Phosphodiesterase 4B (Q07343 whole entry): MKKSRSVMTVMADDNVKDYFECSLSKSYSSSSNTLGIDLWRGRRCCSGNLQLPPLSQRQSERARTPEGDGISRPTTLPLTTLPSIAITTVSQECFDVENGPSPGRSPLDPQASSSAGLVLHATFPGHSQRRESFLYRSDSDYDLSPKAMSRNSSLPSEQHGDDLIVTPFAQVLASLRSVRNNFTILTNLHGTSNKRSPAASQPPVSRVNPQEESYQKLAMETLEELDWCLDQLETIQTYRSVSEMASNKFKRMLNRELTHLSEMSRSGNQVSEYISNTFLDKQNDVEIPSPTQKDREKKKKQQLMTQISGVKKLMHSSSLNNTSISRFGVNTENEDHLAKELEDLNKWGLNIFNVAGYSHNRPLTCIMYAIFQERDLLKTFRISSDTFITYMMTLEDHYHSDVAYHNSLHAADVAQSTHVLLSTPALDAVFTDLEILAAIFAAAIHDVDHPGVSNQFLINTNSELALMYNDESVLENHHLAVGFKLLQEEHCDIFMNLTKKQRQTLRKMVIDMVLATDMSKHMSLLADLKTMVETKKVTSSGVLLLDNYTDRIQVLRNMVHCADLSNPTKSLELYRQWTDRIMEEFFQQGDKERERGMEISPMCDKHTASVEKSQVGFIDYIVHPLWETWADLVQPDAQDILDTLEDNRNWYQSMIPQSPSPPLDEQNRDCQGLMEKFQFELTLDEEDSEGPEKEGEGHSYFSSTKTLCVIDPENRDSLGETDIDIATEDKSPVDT
Chain of Cannabinoid receptor type 2 (P34972 whole entry): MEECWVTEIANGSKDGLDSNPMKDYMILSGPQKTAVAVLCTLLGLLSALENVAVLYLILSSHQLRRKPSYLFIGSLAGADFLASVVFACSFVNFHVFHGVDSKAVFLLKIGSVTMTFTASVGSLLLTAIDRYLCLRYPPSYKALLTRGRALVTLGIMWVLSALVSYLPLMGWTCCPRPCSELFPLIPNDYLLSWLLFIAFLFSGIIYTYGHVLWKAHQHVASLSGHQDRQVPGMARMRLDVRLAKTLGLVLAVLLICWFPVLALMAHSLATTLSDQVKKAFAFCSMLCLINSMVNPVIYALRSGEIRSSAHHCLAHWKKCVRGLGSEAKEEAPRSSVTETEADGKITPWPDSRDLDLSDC
Chain of Adrenergic Receptor b2 (P07550 whole entry): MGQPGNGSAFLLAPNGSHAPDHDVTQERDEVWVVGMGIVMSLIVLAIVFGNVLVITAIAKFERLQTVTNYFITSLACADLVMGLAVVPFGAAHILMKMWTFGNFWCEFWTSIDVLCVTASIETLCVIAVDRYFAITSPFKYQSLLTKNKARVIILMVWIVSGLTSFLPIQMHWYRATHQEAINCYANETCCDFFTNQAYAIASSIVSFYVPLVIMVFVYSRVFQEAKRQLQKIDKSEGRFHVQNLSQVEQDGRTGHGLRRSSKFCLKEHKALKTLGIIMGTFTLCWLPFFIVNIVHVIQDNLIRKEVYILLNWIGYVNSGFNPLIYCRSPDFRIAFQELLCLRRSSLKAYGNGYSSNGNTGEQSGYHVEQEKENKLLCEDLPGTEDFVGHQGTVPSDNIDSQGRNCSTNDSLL
Chain of Adenosine Receptor a2A (P29274 whole entry, species assumed): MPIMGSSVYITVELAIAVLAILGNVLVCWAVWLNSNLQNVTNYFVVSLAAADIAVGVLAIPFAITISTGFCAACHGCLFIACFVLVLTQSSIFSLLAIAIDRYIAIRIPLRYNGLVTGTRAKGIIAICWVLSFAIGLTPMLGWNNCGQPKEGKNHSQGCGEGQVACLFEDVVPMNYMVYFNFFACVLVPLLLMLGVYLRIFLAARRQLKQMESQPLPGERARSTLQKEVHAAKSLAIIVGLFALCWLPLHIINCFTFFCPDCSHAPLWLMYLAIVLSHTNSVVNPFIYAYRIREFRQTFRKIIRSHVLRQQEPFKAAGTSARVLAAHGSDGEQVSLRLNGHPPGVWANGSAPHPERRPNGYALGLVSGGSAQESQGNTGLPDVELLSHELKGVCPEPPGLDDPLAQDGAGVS
Chain of Vasopressin Receptor V1a (P37288 whole entry): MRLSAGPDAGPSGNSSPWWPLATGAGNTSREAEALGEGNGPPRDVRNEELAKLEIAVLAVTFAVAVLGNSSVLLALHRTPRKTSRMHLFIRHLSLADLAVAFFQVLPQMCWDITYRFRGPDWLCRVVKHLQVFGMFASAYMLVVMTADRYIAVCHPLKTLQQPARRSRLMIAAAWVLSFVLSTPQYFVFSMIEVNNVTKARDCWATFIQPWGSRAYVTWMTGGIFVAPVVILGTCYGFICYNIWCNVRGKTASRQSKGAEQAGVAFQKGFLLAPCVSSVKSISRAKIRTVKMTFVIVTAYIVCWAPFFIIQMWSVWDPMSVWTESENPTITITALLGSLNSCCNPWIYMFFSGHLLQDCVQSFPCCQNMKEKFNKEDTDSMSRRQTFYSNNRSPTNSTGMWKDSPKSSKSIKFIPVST
Chain of Dopamin Receptor D1 (P21728 whole entry): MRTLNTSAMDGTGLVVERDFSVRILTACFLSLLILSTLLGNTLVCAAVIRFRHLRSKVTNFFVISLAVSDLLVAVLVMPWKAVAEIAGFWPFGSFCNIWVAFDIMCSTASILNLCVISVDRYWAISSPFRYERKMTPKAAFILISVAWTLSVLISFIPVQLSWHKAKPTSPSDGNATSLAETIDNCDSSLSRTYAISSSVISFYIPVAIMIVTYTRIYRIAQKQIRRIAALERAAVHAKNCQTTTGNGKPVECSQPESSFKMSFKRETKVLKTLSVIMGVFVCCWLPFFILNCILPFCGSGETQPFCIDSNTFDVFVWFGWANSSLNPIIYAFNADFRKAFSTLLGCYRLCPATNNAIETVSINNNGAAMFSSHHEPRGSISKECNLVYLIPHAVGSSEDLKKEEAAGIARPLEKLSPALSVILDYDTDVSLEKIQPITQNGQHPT
Chain of Phosphoinositide 3-kinase g (P48736 whole entry): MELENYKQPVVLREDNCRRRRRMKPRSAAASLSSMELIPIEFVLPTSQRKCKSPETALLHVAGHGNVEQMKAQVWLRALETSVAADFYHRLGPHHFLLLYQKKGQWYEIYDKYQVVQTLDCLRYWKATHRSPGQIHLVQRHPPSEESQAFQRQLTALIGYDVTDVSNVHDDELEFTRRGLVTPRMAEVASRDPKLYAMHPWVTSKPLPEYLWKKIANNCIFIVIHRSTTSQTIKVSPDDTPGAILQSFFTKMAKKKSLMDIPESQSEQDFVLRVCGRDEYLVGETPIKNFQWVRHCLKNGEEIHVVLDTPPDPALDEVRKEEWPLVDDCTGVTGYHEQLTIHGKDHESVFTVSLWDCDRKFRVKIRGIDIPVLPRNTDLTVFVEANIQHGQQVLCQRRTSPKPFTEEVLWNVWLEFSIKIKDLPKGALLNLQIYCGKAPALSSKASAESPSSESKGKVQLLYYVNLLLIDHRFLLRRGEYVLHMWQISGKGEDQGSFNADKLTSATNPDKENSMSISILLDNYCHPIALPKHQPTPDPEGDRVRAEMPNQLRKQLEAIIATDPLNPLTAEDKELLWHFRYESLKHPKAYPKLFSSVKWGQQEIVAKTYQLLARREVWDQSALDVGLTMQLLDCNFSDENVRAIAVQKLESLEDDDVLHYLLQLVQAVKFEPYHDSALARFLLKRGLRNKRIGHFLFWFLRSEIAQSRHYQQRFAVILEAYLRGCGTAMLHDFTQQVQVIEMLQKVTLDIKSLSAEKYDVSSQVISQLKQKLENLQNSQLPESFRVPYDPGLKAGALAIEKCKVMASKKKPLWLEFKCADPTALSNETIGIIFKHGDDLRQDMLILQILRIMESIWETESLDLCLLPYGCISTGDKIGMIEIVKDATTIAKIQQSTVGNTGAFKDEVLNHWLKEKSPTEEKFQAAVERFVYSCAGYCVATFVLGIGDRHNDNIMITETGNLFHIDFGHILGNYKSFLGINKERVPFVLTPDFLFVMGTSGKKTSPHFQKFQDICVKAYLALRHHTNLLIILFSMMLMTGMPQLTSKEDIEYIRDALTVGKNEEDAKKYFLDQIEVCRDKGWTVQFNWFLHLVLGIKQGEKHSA

In the case of `COc1ncc(-c2ccc3c(Nc4cc(C(=O)O)cc(C5CCCC5)c4)c(S(=O)(=O)NC4CC4)cnc3c2)c(OC)n1` [Compound 2], the “intracellular fructose-1,6-bisphosphate (FBP) level” value with Snu398 cells [1] is “increase intracellular levels of fructose-1,6-bisphosphate (FBP)”. Also, the IC50 at Adenosine Receptor a2A is 31.6 µM; at Adrenergic Receptor b2, 31.6 µM; on Aurora B Kinase it was 31.6 µM; on Dopamin Receptor D1 it was 31.6 µM; on Muscarinic Receptor M2 [4] it was 15.8 µM; in assay [5] (antagonist, read-out: pIC50 Nicotinic Ach Receptor A1 ANT (converted)), 15.8 µM. The IC50 on Opioid Receptor m [7] was 31.6 µM; at Phosphodiesterase 4B, 0.501 µM; in assay [8], 31.6 µM; at Serotonin Receptor 5HT1B [10], 31.6 µM; at Serotonin Receptor 5HT2C it was 39.8 µM; on Sodium Channel NaV 1.5, 39.8 µM. At Vasopressin Receptor V1a, the IC50 was 20 µM. Further, the EC50 is 31.6 µM in [2]; 100 µM at Dopamin Receptor D2; 15.8 µM on Muscarinic Receptor M2 [3]; 100 µM on Opioid Receptor k; 100 µM at Opioid Receptor m [6]; 31.6 µM on Serotonin Receptor 5HT1B [9]. In addition, in the assay on Snu398 cells [11], the EC50 came out at 0.6 ± 0.2 µM.

`COc1ncc(-c2ccc3c(Nc4cc(Oc5cc(F)cc(F)c5)cc(C(=O)O)c4)c(S(=O)(=O)NC4CC4)cnc3c2)c(OC)n1` [Compound 1]: in the assay with Snu398 cells [1], the “intracellular fructose-1,6-bisphosphate (FBP) level” value is recorded as “increase intracellular levels of fructose-1,6-bisphosphate (FBP); also recorded: Increase in fructose-1,6-bisphosphate (FBP)”. Besides, the IC50 on Adenosine Receptor a2A is 31.6 µM; on Adrenergic Receptor b2, 31.6 µM; on Aurora B Kinase, 7.94 µM; on Dopamin Receptor D1 it was 31.6 µM; on Muscarinic Receptor M2 [4], 15.8 µM; in [5], 50.1 µM. For the same compound, the IC50 on Opioid Receptor m [7] is 63.1 µM; at Phosphodiesterase 4B, 1.26 µM; in [8] it was 31.6 µM; on Serotonin Receptor 5HT1B [10], 31.6 µM; at Serotonin Receptor 5HT2C, 39.8 µM; at Sodium Channel NaV 1.5, 100 µM. Besides, the IC50 on Vasopressin Receptor V1a was 50.1 µM. In addition, the EC50 in [2] is 31.6 µM; on Dopamin Receptor D2, 100 µM; on Muscarinic Receptor M2 [3], 15.8 µM; at Opioid Receptor k it was 100 µM; on Opioid Receptor m [6], 100 µM; on Serotonin Receptor 5HT1B [9] it was 31.6 µM. Further, in the assay with Snu398 cells [11], the EC50 was 0.4 ± 0.1 µM.
